Measured values as given in patent US11802110B2, “2-amino-N-(arylsulfinyl)-acetamide compounds as inhibitors of bacterial aminoacyl-tRNA synthetase” (priority 2016, dated 2023).
Values after ≈ are worked out from the molar mass of the structure shown. Like-named read-outs stand apart in the source and are kept apart here.

Key:
[1] = Human cell viability (cytotoxicity), ATP levels by CellTiter-Glo; assay type: cell-based; settings: HepG2 cells (ATCC HB-8065), 24 hours incubation, read-out: IC50 (μg/mL), Cytotoxicity in HepG2 ATCC HB-8065 Cell Line
Method: Compounds were assessed for potential non-specific cytotoxic effects against a human hepatic cell line (HepG2 ATCC HB-8065). 96-well plates were seeded with HepG2 cells in concentration of 15,000 cells per well in 100 μL of MEM growth media completed with 1% NEAA and 1% sodium pyruvate. Border wells were filled with 100 μL of sterile PBS. Two days upon cells incubation, the compounds were added. Compound dilutions were prepared in 96-well V-bottom plate in pure DMSO. Growth media from 5 plates were aspirated and replaced with 98.7 μL of fresh growth media. 1.28 μL of compounds prepared in V-bottom plates were transferred with multichannel pipette into test plates (78.1× dilution). Final DMSO concentration was 1.28% per well. In control wells, 1.28 μL of DMSO was added in 98.7 μL of media. Compounds were tested in duplicates. Cells were incubated with compounds for 24 hours when cell viability was assessed by measuring ATP levels. ATP levels were measured by adding 50 μL of CellTiter-Glo reagent to each well and after 5 minutes of incubation luminescence was measured with SpectraMax i3. The potential effect of tested compounds on cell viability was determined by comparing the signal obtained in presence of different concentrations of the compounds with those obtained in the presence of DMSO only. The potential effects were then calculated and presented as IC50 values (μg/mL).

E. Coli LeuRS = E. Coli LeuRS (Escherichia coli (strain K12), UniProt P07813); assay: Study 2 - Isothermal titration calorimetry (ITC); assay type: binding; settings: 25° C., pH 7.5, mean ± SD
Method: Escherichia coli BL21(DE3) cells transformed with plasmid pQE-60 containing the open-reading frame sequence of one targeted aaRS (i.e., LeuRS) were induced with 1 mM IPTG (isopropyl β-D-1-thiogalactopyranoside) for 3 hours at 37° C. Bacterial cells were harvested and lysed with 20 mM HEPES (4-(2-hydroxyethyl)-1-piperazinylethane-sulfonic acid) (pH 7.5), 300 mM NaCl, 15 mM imidazole and 1 mM DTT (1,4-dithio-D-threitol). The pathogenic aaRS was first purified by nickel affinity standard chromatography. The eluted protein was concentrated and then further purified by gel filtration using 50 mM HEPES (pH 7.5), 150 mM NaCl buffer.
ITC studies were carried out using a Microcal ITC200 instrument (GE Healthcare). Protein concentration was determined by spectrophotometry by measuring the absorbance at 280 nm using a theoretical molar extinction coefficient of 169,140 M^−1cm^−1. Ligand stock solutions were prepared in DMSO at 62.5 mM concentration. The titrations were performed at 25° C. with 7.5-100 μM E. Coli LeuRS in 50 mM HEPES, 150 mM NaCl, pH 7.5 buffer containing 1% DMSO (v/v). The protein solution in the 280 μL sample cell was titrated with the inhibitor solution (diluted to 75-3000 μM in the same buffer as the protein) using 1-2 μL injections every 120-140 seconds. All titrations were repeated at least two times. To correct for heats of dilution and mixing, the final baseline consisting of small peaks of identical size at the end of each experiment was subtracted. The experimental data were fitted to a theoretical titration curve (one site model) using MicroCal Origin 7 SR4 software.
Note that Compounds R-4.1 and S-4.1 (in Table 15, below) correspond to Compounds V-i and V-ii (in Tables 13 and 14, above), respectively.

[2] = test system: Acinetobacter baumannii B1931 clinical isolate; assay: Study 4 - MIC by broth micro-dilution (CLSI); assay type: cell-based; settings: Acinetobacter baumannii
Method: (§1) Minimum Inhibitory Concentrations (MICs) were determined by the broth micro-dilution method performed according to Clinical Laboratory Standards Institute guidelines. For testing, 5 mg/mL DMSO solutions were prepared by dissolving solids in DMSO. Standard antibiotics were prepared according to CLSI guidelines as 5 mg/mL stock solutions. Upon DMSO stock solutions preparation, the working solutions in MH media were prepared by adding 38.4 μL of stock solution to 1461.6 μL of MH media. Out of these working solutions 100 μL were transferred to wells in the third column of 96-well assay plates. Assay plates were previously filled with 50 μL of MH media in all wells except for the wells in the third column. Upon compounds and antibiotics addition, 50 μL was transferred from the third to the fourth column, then from the fourth to the fifth and so on.
(§2) MIC value was determined by visual inspection of bacterial growth within 96-well plates. The first column in which there was no visible growth of bacteria was determined as MIC value for compound or antibiotic tested in that particular row. ATCC strains were used as reference strains for which there is a determined value of MIC values for standard antibiotics. The assay is considered valid when MIC values for standard antibiotics are within CLSI designated range for ATCC strain tested.

[3] = test system: Enterobacter cloacae B1966 clinical isolate; assay: Study 4 - MIC by broth micro-dilution (CLSI); assay type: cell-based
Method: as §1, §2

[4] = test system: Escherichia coli ATCC 25922; assay: Study 4 - MIC by broth micro-dilution (CLSI); assay type: cell-based; settings: Escherichia coli, ATCC25922
Method: as §1, §2

[5] = test system: Haemophilus influenzae ATCC 49247; assay: Study 4 - MIC by broth micro-dilution (CLSI); assay type: cell-based; settings: Haemophilus influenzae, ATCC49247; G = H. influenzae ATCC 49247; read-out: MIC
Method: as §1, §2

[6] = test system: Klebsiella pneumoniae ATCC 700603; assay: Study 4 - MIC by broth micro-dilution (CLSI); assay type: cell-based; settings: Klebsiella pneumoniae, ATCC700603
Method: as §1, §2

[7] = test system: Pseudomonas aeruginosa ATCC 27853; assay: Study 4 - MIC by broth micro-dilution (CLSI); assay type: cell-based; settings: Pseudomonas aeruginosa, ATCC27853
Method: as §1, §2

[8] = test system: Escherichia coli ATCC 25922 TolC deficient mutant (E. coli EFFLUX del); assay: microbe, parasite or virus in culture; assay type: cell-based; settings: Escherichia coli, ATCC25922
Method: as §1, §2

E. Coli LeuRS, sequence (P07813 whole entry): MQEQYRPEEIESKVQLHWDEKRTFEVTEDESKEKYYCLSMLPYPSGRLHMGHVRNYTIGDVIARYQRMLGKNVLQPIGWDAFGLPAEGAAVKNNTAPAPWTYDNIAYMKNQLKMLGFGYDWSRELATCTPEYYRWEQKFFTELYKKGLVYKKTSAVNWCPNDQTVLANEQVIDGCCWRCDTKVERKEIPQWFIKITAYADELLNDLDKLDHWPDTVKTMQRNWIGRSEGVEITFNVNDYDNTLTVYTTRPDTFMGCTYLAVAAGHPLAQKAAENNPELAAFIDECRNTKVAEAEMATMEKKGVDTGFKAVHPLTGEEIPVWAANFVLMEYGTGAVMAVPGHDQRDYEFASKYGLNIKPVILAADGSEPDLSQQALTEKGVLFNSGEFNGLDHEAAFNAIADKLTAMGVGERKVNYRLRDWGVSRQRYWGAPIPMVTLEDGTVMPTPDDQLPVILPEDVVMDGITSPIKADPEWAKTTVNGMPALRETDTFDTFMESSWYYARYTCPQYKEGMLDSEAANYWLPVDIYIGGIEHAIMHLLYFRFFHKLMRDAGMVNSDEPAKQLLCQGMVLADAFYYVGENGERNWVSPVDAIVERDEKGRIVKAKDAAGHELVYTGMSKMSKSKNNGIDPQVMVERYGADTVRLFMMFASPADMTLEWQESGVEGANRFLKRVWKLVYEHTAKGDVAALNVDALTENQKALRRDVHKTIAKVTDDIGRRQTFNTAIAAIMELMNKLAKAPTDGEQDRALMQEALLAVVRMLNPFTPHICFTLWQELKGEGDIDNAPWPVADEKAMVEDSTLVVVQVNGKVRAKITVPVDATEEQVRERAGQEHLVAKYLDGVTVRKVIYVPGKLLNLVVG

SMILES	IC50 at 24 h [1] [µg/mL]	Kd (E. Coli LeuRS) [nM]	ΔG (E. Coli LeuRS) [kcal/mol]	ΔH (E. Coli LeuRS) [kcal/mol]	MIC [2] [µg/mL]	MIC ([3]; Enterobacter cloacae) [µg/mL]	MIC [4] [µg/mL]	MIC [5] [µg/mL]	MIC [6] [µg/mL]	MIC [7] [µg/mL]	also measured
CCC(C)C(N)C(=O)N[S+]([O-])c1ccccc1 (stereo not drawn) [4.2]	> 32	–	–	–	–	–	–	–	–	–	–
CSCCC(N)C(=O)N[S+]([O-])c1ccccc1 (stereo not drawn) [4.3]	> 64	–	–	–	–	–	–	–	–	–	–
CCCC(N)C(=O)N[S+]([O-])c1ccccc1 (stereo not drawn) [4.4]	> 64	159 ± 29.4	-9.28 ± 0.11	-9.06 ± 0.28	–	–	–	–	–	–	–
CC(C)C(N)C(=O)N[S+]([O-])c1ccccc1 (stereo not drawn) [4.5]	> 32	–	–	–	–	–	–	–	–	–	–
CC(C)C[C@@H](N)C(=O)N[S+]([O-])c1ccccc1 (stereo partly drawn) [4.6]	> 32	–	–	–	–	–	–	–	–	–	–
CC(C)CC(C)(N)C(=O)N[S+]([O-])c1ccccc1 (stereo not drawn) [4.7]	> 64	1820 ± 256	-7.84 ± 0.09	-1.66 ± 0.75	–	–	–	–	–	–	–
NC(Cc1ccccc1)C(=O)N[S+]([O-])c1ccccc1 (stereo not drawn) [4.8]	> 64	–	–	–	–	–	–	–	–	–	–
NC(C(=O)N[S+]([O-])c1ccccc1)c1ccccc1 (stereo not drawn) [4.9]	> 64	–	–	–	–	–	–	–	–	–	–
CCC(N)C(=O)N[S+]([O-])c1cccc(F)c1 (stereo not drawn) [4.10]	> 64	–	–	–	–	–	–	–	–	–	–
CC(C)CC(N)C(=O)N[S+]([O-])c1cccc(F)c1 (stereo not drawn) [4.11]	> 64	2.17 ± 0.08	-11.82 ± 0.04	-16.22 ± 0.60	8 (≈ 29.4 µM)	4 (≈ 14.7 µM)	1 (≈ 3.67 µM)	4 (≈ 14.7 µM)	2 (≈ 7.34 µM)	64 (≈ 235 µM)	–
CC(C)CC(N)C(=O)N[S+]([O-])c1cccc(Cl)c1 (stereo not drawn) [4.12]	> 64	–	–	–	16 (≈ 55.4 µM)	8 (≈ 27.7 µM)	2 (≈ 6.93 µM)	4 (≈ 13.9 µM)	4 (≈ 13.9 µM)	16 (≈ 55.4 µM)	–
Cc1cccc([S+]([O-])NC(=O)C(N)CC(C)C)c1 (stereo not drawn) [4.13]	> 64	6.62 ± 1.36	-11.16 ± 0.12	-8.69 ± 1.09	32 (≈ 119 µM)	32 (≈ 119 µM)	8 (≈ 29.8 µM)	16 (≈ 59.6 µM)	16 (≈ 59.6 µM)	> 64	–
COc1cccc([S+]([O-])NC(=O)C(N)CC(C)C)c1 (stereo not drawn) [4.14]	> 64	4.02 ± 0.38	-11.45 ± 0.06	-12.35 ± 0.04	32 (≈ 113 µM)	32 (≈ 113 µM)	8 (≈ 28.1 µM)	8 (≈ 28.1 µM)	16 (≈ 56.3 µM)	64 (≈ 225 µM)	–
CC(C)CC(N)C(=O)N[S+]([O-])c1cccc(Br)c1 (stereo not drawn) [4.15]	> 64	10.6 ± 0.39	-10.88 ± 0.03	-10.74 ± 0.16	64 (≈ 192 µM)	32 (≈ 96 µM)	8 (≈ 24 µM)	8 (≈ 24 µM)	16 (≈ 48 µM)	64 (≈ 192 µM)	–
CC(C)CC(N)C(=O)N[S+]([O-])c1cccc(C#N)c1 (stereo not drawn) [4.19]	> 64	3.35 ± 0.48	-11.56 ± 0.09	-8.49 ± 0.38	64 (≈ 229 µM)	8 (≈ 28.6 µM)	2 (≈ 7.16 µM)	8 (≈ 28.6 µM)	4 (≈ 14.3 µM)	> 64	–
COCc1cccc([S+]([O-])NC(=O)C(N)CC(C)C)c1 (stereo not drawn) [4.23]	–	17.5 ± 1.1	-10.58 ± 0.03	-7.06 ± 0.75	–	–	–	–	–	–	–
CC(C)CC(N)C(=O)N[S+]([O-])c1ccc(C(C)(C)C)cc1 (stereo not drawn) [4.28]	> 64	–	–	–	–	–	–	–	–	–	–
Cc1ccc([S+]([O-])NC(=O)C(N)CC(C)C)c(F)c1 (stereo not drawn) [4.38]	> 64	–	–	–	–	–	–	–	–	–	–
CC(C)CC(N)C(=O)N[S+]([O-])c1cccc2ccccc12 (stereo not drawn) [4.39]	46 (≈ 151 µM)	12.8 ± 1.6	-10.77 ± 0.08	-9.29 ± 0.62	64 (≈ 210 µM)	64 (≈ 210 µM)	16 (≈ 52.6 µM)	8 (≈ 26.3 µM)	64 (≈ 210 µM)	> 64	–
CC(C)CC(N)C(=O)N[S+]([O-])c1ccc2ccccc2c1 (stereo not drawn) [4.40]	> 64	–	–	–	–	–	–	–	–	–	–
CC(C)CC(N)C(=O)N[S+]([O-])c1cccs1 (stereo not drawn) [4.41]	> 64	–	–	–	–	–	–	–	–	–	–
CC[C@H]1OC(=O)[C@H](C)[C@@H](O[C@H]2C[C@@](C)(OC)[C@@H](O)[C@H](C)O2)[C@H](C)[C@@H](O[C@@H]2O[C@H](C)C[C@H](N(C)C)[C@H]2O)[C@](C)(O)C[C@@H](C)CN(C)[C@H](C)[C@@H](O)[C@]1(C)O [Azithromycin]	–	–	–	–	–	–	–	2 (≈ 2.67 µM)	–	–	MIC ([2]; F = A. baumannii B1931, read-out: MIC): 16 µg/mL (≈ 21.4 µM); MIC ([3]; C = Enterobacter cloacae B1966, read-out: MIC): 16 µg/mL (≈ 21.4 µM); MIC ([4]; A = E. coli ATCC 25922, read-out: MIC): 4 µg/mL (≈ 5.34 µM); MIC ([6]; D = KI. pneumoniae ATCC 700603, read-out: MIC): 32 µg/mL (≈ 42.7 µM); MIC ([7]; E = P. aeruginosa ATCC 27853, read-out: MIC): 32 µg/mL (≈ 42.7 µM); MIC [8]: 0.5 µg/mL (≈ 0.668 µM)
